One assay has as its system HDAC. The settings on record: cell-free assay where stated; read-out: IC50 (pan-HDAC); cited from earlier work.
A further assay concerns HDACs 2, 3, 6, and 10. The settings on record: cited from earlier work.
In the next assay the target is HDAC1 (Homo sapiens, UniProt Q13547). The settings on record: cell-free assays where stated; cited from earlier work.
For the next assay, the target named is HDAC6 (Homo sapiens, UniProt Q9UBN7). Particulars: cell-free assays; cited from earlier work.
HDAC6, sequence (Q9UBN7 whole entry, species assumed): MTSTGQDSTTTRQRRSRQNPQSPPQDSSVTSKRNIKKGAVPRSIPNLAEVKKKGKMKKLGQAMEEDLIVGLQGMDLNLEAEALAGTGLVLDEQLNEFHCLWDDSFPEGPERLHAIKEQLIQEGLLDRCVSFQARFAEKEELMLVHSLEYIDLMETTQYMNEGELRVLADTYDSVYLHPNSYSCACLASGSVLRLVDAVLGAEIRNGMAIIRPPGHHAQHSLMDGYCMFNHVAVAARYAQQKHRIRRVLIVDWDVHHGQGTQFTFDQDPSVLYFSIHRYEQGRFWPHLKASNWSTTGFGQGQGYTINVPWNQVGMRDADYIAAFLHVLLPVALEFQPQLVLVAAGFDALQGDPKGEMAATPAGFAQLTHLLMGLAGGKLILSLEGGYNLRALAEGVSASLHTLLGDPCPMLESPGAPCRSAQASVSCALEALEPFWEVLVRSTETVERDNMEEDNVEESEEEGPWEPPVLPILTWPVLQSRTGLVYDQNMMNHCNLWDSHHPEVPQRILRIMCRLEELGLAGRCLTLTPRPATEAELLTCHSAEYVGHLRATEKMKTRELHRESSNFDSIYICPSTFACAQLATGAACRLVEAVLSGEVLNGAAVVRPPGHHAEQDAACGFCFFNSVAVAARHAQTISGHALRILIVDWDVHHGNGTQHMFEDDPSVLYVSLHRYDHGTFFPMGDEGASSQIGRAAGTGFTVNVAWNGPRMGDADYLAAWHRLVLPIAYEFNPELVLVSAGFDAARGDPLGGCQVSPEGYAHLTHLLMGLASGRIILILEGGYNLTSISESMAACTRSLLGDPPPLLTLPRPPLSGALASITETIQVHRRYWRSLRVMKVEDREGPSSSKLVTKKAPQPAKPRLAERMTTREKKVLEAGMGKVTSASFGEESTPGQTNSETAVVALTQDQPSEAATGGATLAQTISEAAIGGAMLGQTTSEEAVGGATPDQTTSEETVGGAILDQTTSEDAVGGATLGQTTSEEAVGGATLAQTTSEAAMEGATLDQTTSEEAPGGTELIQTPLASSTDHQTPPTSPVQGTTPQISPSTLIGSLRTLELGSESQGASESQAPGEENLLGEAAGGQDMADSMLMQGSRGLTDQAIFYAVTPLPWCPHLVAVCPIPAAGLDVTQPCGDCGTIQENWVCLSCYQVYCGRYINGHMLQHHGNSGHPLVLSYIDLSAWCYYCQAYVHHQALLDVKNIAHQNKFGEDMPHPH
The next assay concerns the target HDAC3 (Homo sapiens, UniProt O15379). Particulars: cell-free where stated; cited from earlier work.
The target of another assay is HDAC2 (Homo sapiens, UniProt Q92769). The settings on record: cell-free assays where stated; cited from earlier work.
HDAC2, sequence (Q92769 whole entry, species assumed): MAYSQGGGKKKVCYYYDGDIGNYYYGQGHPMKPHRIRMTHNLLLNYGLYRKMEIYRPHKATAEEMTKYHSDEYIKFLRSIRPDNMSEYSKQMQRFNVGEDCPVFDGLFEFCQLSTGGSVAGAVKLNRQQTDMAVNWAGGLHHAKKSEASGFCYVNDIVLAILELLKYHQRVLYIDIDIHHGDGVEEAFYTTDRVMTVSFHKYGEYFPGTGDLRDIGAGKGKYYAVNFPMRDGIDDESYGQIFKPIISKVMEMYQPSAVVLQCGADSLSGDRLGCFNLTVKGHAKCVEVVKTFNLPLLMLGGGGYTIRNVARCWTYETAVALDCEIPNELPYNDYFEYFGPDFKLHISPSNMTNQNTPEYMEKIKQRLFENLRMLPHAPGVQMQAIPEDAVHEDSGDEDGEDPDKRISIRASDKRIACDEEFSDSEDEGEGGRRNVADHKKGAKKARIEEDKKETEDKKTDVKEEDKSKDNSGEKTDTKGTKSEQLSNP
The subject of another assay is maize HD2. The settings on record: cell-free assays; cited from earlier work.
For the next assay, the system named is maize HD1B. Particulars: cell-free assays; cited from earlier work.
The next assay concerns maize HD1A. Particulars: cell-free assays; cited from earlier work.
In assay [1] the target is class III isoenzyme SIRT I (Homo sapiens, UniProt Q96EB6). The settings on record: cited from earlier work.
class III isoenzyme SIRT I, sequence (Q96EB6 whole entry): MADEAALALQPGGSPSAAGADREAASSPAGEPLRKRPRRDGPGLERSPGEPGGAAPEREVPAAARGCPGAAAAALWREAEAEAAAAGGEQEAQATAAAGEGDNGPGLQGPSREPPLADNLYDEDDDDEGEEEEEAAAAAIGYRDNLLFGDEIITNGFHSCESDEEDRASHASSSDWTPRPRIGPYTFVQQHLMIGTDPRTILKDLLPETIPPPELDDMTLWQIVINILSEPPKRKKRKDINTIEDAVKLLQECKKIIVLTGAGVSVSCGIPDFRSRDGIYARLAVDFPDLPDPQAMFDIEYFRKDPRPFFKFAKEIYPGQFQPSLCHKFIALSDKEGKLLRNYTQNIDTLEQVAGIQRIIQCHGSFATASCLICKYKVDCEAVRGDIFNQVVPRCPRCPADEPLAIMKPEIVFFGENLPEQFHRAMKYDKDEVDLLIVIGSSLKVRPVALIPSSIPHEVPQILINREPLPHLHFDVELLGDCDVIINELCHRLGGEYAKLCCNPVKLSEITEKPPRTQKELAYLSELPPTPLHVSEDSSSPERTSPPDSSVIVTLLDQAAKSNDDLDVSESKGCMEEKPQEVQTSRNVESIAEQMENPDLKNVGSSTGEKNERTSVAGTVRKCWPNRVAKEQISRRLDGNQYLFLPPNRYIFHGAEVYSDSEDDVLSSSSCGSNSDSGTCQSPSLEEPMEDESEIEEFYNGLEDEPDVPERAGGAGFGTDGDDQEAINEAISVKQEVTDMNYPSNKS
The subject of the next assay is HDACs 2, 4, 10, and 11. Particulars: cited from earlier work.
The next assay concerns HDACs 6 and 7. Particulars: cited from earlier work.
The next assay addresses HDAC8 (Homo sapiens, UniProt Q9BY41). The settings on record: cited from earlier work.
In assay [2] the test system is HDAC4/5/7/9/11, Sirtuin1, and Sirtuin2. The settings on record: cited from earlier work.
For a further assay, the system named is acetylated H4 and H3. Particulars: cited from earlier work.
Another assay deals with CCL5. Kind of assay: CCL5 secretion by reactive astrocytes (ELISA). Type of assay: cell-based, mouse. The settings on record: FIG. 4. The protocol: Astrocytes were plated and treated exactly as described for the antigen cross presentation assay. However, after 24 hrs of incubation with either reactive astrocyte driving factors alone or with HDAC inhibitor treatment, conditioned media from the cells was collected and assayed for CCL5 using a commercially available colorimetric ELISA kit (RnD Cat #: DY478-05). Data was then fit to a standard four parameter logistic (4PL) curve and presented as pg/mL/cell, normalized to reactive astrocytes plus DMSO vehicle (FIG. 4).
Media was collected from mouse P2 primary astrocytes that had been cultured for 24 hrs in the presence of cytokines with and without HDAC3 inhibitors and compared to media from astrocytes not treated with cytokines. The concentration of CCL5, a cytokine secreted by reactive astrocytes, was measured in each of the respective media conditions based on the direct adsorption of CCL5 to a pre-coated capture antibody on the ELISA assay plate. The ELISA sandwich assay was performed according to the manufacturer's instructions (DY478-05, R&D Systems). Relative CCL5 concentration were measured based on absorbance measured by a plate reader.

The subject of a further assay is RelA/P65. Kind of assay: Nuclear RelA/P65 in reactive astrocytes. Type of assay: cell-based, mouse. The protocol:
For immunocytochemistry, cells were fixed with ice-cold 4% PFA for 15 minutes at room temperature, washed three times with PBS, blocked and permeabilized with 10% donkey serum and 0.1% Triton X-100 in PBS for 1 hr, and then stained with primary overnight followed by three washes with PBS, and then 1 hr incubation with Alexaflour secondary antibodies and DAPI. Stained cells were imaged using the PerkinElmer Operetta CLS High-Content Analysis System and analyzed using automated scripts in PerkinElmer Columbus Image Analysis software. Primary antibodies used were GBP2 (ProteinTech, 11854-1-AP), vimentin (BioLegend, 919101), RelA/P65 (Cell Signaling Tech, 6956), MBP (Abeam, AB7349).

In assay [3] the test system is MHC Class I (H-2Kb) bound to OVA257-264 on reactive astrocytes. Kind of assay: OVA257-264 peptide antigen cross presentation assay. The settings on record: for treated cells H-2 kB-OVA positive DRAs: reactive astrocytes without inhibitor more than about 80%. The assay is classed as cell-based, mouse. As for the experimental part: To test whether HDAC inhibitors block the ability of reactive astrocytes to cross present exogenous antigen, cells were plated down in 96-well plates at a density of about 500 cells/mm^2. Cells were then treated with HDAC inhibitors for 1 hr prior to the addition of reactive astrocyte driving factors as the concentrations stated above. Cells were incubated for 24 hrs, after which, media was washed out and replaced with media containing the peptide fragment ovalbumin 257-264 (OVA257-264). Cells were then incubated overnight, and then stained for 2 hrs at 37° C. with APC-conjugated antibody against MHC Class I (H-2Kb) bound to OVA257-264, then visualized. The percent of H-2Kb positive cells as a percent of total live cells was determined (FIG. 3).
After 24 hours of treatment, these cells were cultured in the presence of the OVA257264 Peptide (GenScript RP10611 or Sigma S7951). After 12 hours, the cells were live-stained for two hours using a conjugated antibody targeted against an OVA257-264 peptide antigen. The cells were then fixed and imaged using the PerkinElmer Operetta CLS High-Content Analysis System.

Where two headings read alike, the source gives them in different places. Where only a bound is given, the exact number is not on record here.

HDAC3, sequence (O15379 whole entry, species assumed): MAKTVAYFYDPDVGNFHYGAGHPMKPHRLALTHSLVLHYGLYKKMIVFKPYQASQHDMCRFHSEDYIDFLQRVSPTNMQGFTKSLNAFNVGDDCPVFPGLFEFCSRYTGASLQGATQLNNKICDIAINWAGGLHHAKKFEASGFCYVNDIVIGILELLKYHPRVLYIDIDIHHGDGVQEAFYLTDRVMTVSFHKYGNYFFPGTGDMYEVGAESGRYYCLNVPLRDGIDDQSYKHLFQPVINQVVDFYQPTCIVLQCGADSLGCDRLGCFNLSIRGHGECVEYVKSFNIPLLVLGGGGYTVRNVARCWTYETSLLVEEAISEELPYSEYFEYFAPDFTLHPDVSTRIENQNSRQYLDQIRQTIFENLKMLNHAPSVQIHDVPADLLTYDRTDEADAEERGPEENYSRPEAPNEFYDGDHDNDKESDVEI
HDAC3, sequence (Q9Y618 395-489 partner limits assumed, species assumed): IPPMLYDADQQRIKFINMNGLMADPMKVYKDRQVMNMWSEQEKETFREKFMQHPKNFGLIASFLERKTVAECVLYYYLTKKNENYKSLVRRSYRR
HDAC1, sequence (Q13547 whole entry, species assumed): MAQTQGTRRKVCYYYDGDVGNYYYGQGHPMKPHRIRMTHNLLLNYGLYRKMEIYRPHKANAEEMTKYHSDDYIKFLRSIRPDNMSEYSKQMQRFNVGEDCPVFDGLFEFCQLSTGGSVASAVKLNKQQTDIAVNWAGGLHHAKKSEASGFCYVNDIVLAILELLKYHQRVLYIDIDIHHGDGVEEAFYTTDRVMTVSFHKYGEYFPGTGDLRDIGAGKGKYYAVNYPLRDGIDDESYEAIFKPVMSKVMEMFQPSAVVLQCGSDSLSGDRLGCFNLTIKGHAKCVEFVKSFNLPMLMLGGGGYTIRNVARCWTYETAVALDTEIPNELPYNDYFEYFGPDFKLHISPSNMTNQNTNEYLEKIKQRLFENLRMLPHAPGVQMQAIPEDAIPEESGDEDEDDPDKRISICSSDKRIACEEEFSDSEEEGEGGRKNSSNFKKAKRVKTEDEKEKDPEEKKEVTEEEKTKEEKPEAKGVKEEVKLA
HDAC8, sequence (Q9BY41 whole entry, species assumed): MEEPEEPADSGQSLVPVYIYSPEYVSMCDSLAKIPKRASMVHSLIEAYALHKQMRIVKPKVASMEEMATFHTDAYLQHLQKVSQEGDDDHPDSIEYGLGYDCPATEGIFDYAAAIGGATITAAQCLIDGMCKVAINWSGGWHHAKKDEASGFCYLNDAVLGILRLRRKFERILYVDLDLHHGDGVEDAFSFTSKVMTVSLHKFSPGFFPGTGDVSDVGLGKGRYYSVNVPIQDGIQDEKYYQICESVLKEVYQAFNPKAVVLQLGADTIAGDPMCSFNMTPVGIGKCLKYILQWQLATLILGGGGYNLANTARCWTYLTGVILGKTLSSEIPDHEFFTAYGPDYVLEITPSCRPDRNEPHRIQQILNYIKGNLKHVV

Turning to `CC(C)[C@H](C(=O)Nc1ccc(C(=O)NO)cc1)c1ccccc1` [AR-42], the IC50 with HDAC was 30 nM.

Take `CN(C)Cc1c(C(=O)NCCOc2ccc(C(=O)NO)cc2)oc2ccccc12` [Abexinostat]: the “potency to HDACs 2, 3, 6, and 10” value in the assay with HDACs 2, 3, 6, and 10 is “modest potent to HDACs 2, 3, 6, and 10 and greater”.

Take `Nc1ccccc1NC(=O)c1cnccn1` [BG45]: the 50% inhibitory concentration (IC50) was 2000 nM on HDAC1, above 20000 nM on HDAC6, 289 nM at HDAC3 and 2200 nM on HDAC2.

`O=C(/C=C/c1ccc(CN(CCO)CCc2c[nH]c3ccccc23)cc1)NO` [Dacinostat]: the IC50 in the assay on HDAC is 32 nM.

`CCN(CC)Cc1ccc2cc(COC(=O)Nc3ccc(C(=O)NO)cc3)ccc2c1` [Givinostat]: the IC50 with maize HD2 was 10 nM; in the assay with maize HD1B it was 7.5 nM; in the assay with maize HD1A it was 16 nM.

With `CN(C)c1ccc(C(=O)NCCCCCCC(=O)NO)cc1` [M344], the IC50 in the assay on HDAC was 100 nM.

For the compound `CCCCc1nc2cc(/C=C/C(=O)NO)ccc2n1CCN(CC)CC` [Pracinostat], the “activity against the class III isoenzyme SIRT I” value in assay [1] is “no”. Also, the half-maximal inhibitory concentration (IC50) in the assay with HDAC was 40 to 140 nM.

Consider `Cn1cc(CNCC2CCN(c3ncc(C(=O)NO)cn3)CC2)c2ccccc21` [Quisinostat], for which, in the assay with HDACs 2, 4, 10, and 11, the “potency to HDACs 2, 4, 10, and 11” value was “modest potent”. Moreover, in the assay on HDACs 6 and 7, the “potency to HDACs 6 and 7” value is “selectivity against HDACs 3, 5, 8, and 9 and lowest”.

As for `O=C(CCCCCCNC(=O)c1cnc(N(c2ccccc2)c2ccccc2)nc1)NO` [Rocilinostat], the “activity against HDAC8” value at HDAC8 is “slight activity”. Besides, the “activity against HDAC4/5/7/9/11, Sirtuin1, and Sirtuin2” value in assay [2] is on record as “minimal”.

Consider `O=C(CCCCCN1C(=O)c2cccc3cccc(c23)C1=O)NO` [Scriptaid], for which, in the assay with acetylated H4 and H3, the “effect on acetylated H4 versus H3” value is recorded as “greater effect on acetylated H4 than H3”.

For `Nc1ccccc1NC(=O)c1ccc(-c2cn(CCc3ccsc3)nn2)cc1` [T247], on HDAC3, the half-inhibitory concentration (IC50) was 55 nM. For the same compound, in the assay on CCL5, the “secretion of CCL5 by reactive astrocytes” value is “significantly decrease”. Further, the “nuclear RelA/P65” value was “decreases” with RelA/P65 and “decreased” with RelA/P65 (listed as T24710). In addition, the “ability of reactive astrocytes to cross present antigen on MHC Class I” value in [3] (FIG. 3) is “decrease”. Besides, the “treated cells H-2 kB-OVA positive DRAs” value in [3] (about 2.5 μM) is on record as “about 8%”; in assay [3] (about 5.0 μM), “about 20%”.

On to Trichostatin A, for which the half-maximal inhibitory concentration (IC50) with HDAC was around 1.8 nM.

The values above are taken from patent publication US20250000847A1, “TREATMENT OF NEURODEGENERATIVE DISEASES WITH HDAC INHIBITORS” (CASE WESTERN RESERVE UNIVERSITY, priority 2021, published 2025).
